Results from patent US9862748B2, “Peptide compounds and methods of production and use thereof” (priority 2012, dated 2018).
Read-outs that look alike come from different tables or passages of the source. Square brackets hold non-standard residues; d marks the D form. Ends that are not written are not given here. Peptide text beside a SMILES is read from it. AEEA = NCCOCCOCC(=O)O

Experiments:
[1] = test system: Pseudomonas aeruginosa ATCC® 27853™; assay type: cell-based; set-up: Effects of Peptide Compounds on Pseudomonas aeruginosa ATCC ® 27853 ™: unit not given here; details: Table 6
Protocol: (§1) In vitro bactericidal activity: The three peptide compounds BCC01-5RMP (SEQ ID NO: 21), BCC02-5RMP (SEQ ID NO: 22), and BCC03-5RMP (SEQ ID NO: 23) were assayed for in vitro bactericidal activity against Pseudomonas aeruginosa, Escherichia coli, Salmonella typhimurium, and Acinetobacter baumannii. The starting inoculum for all experiments was 1×10^6 colony forming units (CFU)/ml. The CFU remaining at the end of 60 to 180 minute incubation was determined, and the data plotted as a log reduction in CFU/ml.
For FIGS. 10-13, in vitro bactericidal assays were performed using a starting inoculum of 1×10^6 CFU/ml of the bacterial suspension. The CFU remaining at the end of the 60-180 minute incubation was determined, and the data was plotted as log reduction in CFU/ml.
In particular, each of the test peptides (CAP37 peptides 120-146WR, 120-146WH, and 95-122 (SEQ ID NOs: 30, 31, and 26, respectively)) was used at 25, 12.5, 6.25, and 3.12 μM. Gentamicin was used at 4 μg/ml. 1×10^6/ml Acinetobacter baumannii ATCC® BAA-747™ or Pseudomonas aeruginosa ATCC® 27853™ (American Type Culture Collection, Manassas, Va.) were incubated with the peptides, negative buffer control (tryptone saline), and positive control gentamicin at pH 5.5 or 7.2. A 60 minute incubation was used for Acinetobacter baumannii ATCC® BAA-747™, while a 180 minute incubation was used for Pseudomonas aeruginosa ATCC® 27853™. 50 μl aliquots were plated out on agar plates and incubated overnight. Colony forming units were counted after overnight incubation and CFU/ml calculated.
For FIG. 14, 1×10^6/ml Pseudomonas aeruginosa ATCC® 27853™ were incubated with each of the test peptides (CAP37 peptides 120-146WR, 120-146WH, 120-146QR, 120-146QH, 120-146QR-5RMP, and 120-146QH-5RMP (SEQ ID NOs: 30, 31, 28, 29, 32, and 33, respectively)) at 150, 75, and 37.5 μg/ml, or negative buffer control (tryptone saline), for 180 minutes at pH 5.5. 50 μl aliquots were plated out on agar plates and incubated overnight. Colony forming units were counted after overnight incubation and CFU/ml calculated.

[2] = test system: E. coli ATCC® strain 25922™; assay type: cell-based, Escherichia coli; set-up: unit not given here; details: Table 6
Protocol: as §1

[3] = test system: human corneal epithelial cell (HCEC); assay: HCEC chemotaxis, modified Boyden chemotaxis chamber assay; assay type: cell-based; details: for HCEC migration versus buffer control: 120-146QH 10^−4 to 10^−10 M, 120-146QR 10^−6 and 10^−8 M, HB-EGF 50 ng/ml, rCAP37 250 ng/ml, 3 hours
Protocol: The effect of buffer control (0.1% BSA in Gey's buffer), heparin binding-epidermal growth factor (HB-EGF, 50 ng/ml), recombinant CAP37 (rCAP37, 250 ng/ml), 120-146QH ([…], 10^−10M, 10^−8M, 10^−4M, and 10^−4M,) and 120-146QR (10^−10M, 10^−8M, 10^−6M, and 10^−4M) on HCEC chemotaxis was determined by the modified Boyden chemotaxis chamber method. HCEC chemotaxis was measured in response to HB-EGF, rCAP37, and peptides 120-146QH (SEQ ID NO: 29) and 120-146QR (SEQ ID NO: 28) after incubation for 3 hours at 37° C. Chemotaxis is expressed as a percent migration. The buffer control (no chemoattractant) is arbitrarily assigned the value of 100% migration. Data are expressed as means±SEM and are calculated from 6 observations for each test point. **P<0.01 by Wilcoxon signed-rank test as compared to controls.
Chemotaxis assays were performed using the modified Boyden chemotaxis chamber assay. Peptide 120-146QH was used at 10^−4M, 10^−6M, 10^−8 M, 10^−10 M, and 10^−12M, and peptide 120-146QR was used at 10^−4M, 10^−6M, 10^−8 M, and 10^−10 M.

[4] = set-up: species or system male Sprague Dawley rats; details: rat, in vivo, iv
Protocol: The purpose of this example was to assess the pharmacokinetics, distribution, and excretion of ^14C-BCC03-5RMP (SEQ ID NO: 23) following a single intravenous administration to male rats. Pharmacokinetic, excretion, and distribution profiles of ^14C-BCC03-5RMP-derived radioactivity were examined in male Sprague Dawley rats following a single intravenous administration of ^14C-BCC03-5RMP (20 mg/kg; 125 μCi/kg). ^14C-BCC03-5RMP was formulated in 5% (v:v) dextrose in water, pH 5.5 and was administered at a dose volume of 5 mL/kg. For assessment of pharmacokinetics of total radioactivity (Group 1), blood was collected at 0.25, 0.5, 1, 2, 4, 8, 24, 48, and 72 hours postdose. For assessment of excretion profiles, urine was collected from 0-8 and 8-24 hours postdose, and at 24-hour intervals through 168 hours postdose. Feces was collected at 24-hour intervals through 168 hours postdose. For assessment of distribution profiles, one animal/time point was sacrificed at 0.25, 1, 4, 24, and 72 hours postdose, and the carcasses were prepared for quantitative whole-body autoradiography (QWBA). Concentrations of radioactivity in whole blood, plasma, urine, feces (after oxidation), cage rinse, cage wash, and carcass were determined by liquid scintillation counting (LSC). Tissue concentrations were calculated by interpolation from each standard curve using MCID™ analysis software (InterFocus Imaging Ltd Corp., UK). Pharmacokinetic parameters for total radioactivity in blood and plasma were calculated using WinNonlin Professional Edition (version 5.2, Pharsight Corporation, St. Louis, Mo.).

[5] = test system: mouse cornea (corneal epithelial abrasion); assay: In vivo model of corneal wound healing; details: treated at 0 and 16 hours; 95-122 10^−5 M; 120-146WH 10^−8 M or 10^−6 M; HB-EGF 250 ng/ml
Protocol: The in vivo model of wound healing was carried out using a disposable biopsy punch (2 mm, Miltex, York, Pa.) to demarcate the mouse cornea and a 0.5 mm burr using the AlgerBrush II (The Alger Company, Inc., Lago Vista, Tex.) to remove the corneal epithelium.
Mice were anesthetized using ketamine (100 mg/kg; Bionichepharma, LLC., St. Lake Forrest, Ill.) and xylazine ([…]; Rompun; Bayer Corp., Shawnee Mission, Kans.), and the right cornea was wounded as follows. A disposable biopsy punch (2 mm, Miltex, York, Pa.) was used to demarcate the mouse cornea. The corneal epithelium was carefully removed within the 2 mm demarcated area with a 0.5 mm burr using the AlgerBrush II (The Alger Company, Inc., Lago Vista, Tex.). The corneal abrasions were treated at 0 and 16 hours with HB-EGF (250 ng/ml), rCAP37 (250 ng/ml), or vehicle control (0.9% sodium chloride, pH 5.5, Baxter, Deerfield, Ill.). Corneal abrasions were visualized using sterile fluorescein sodium ophthalmic strips USP (FLUORETS®, Chauvin Laboratory, Aubenas, France) dampened with sterile PBS. Images were taken at 0, 16, 24, and 48 hours immediately following fluorescein staining using a surgical microscope equipped with a camera (Carl Zeiss OPMI VISU 140, Carl Zeiss Surgical, Inc., Oberkochen, Germany). The areas of the open wound were quantitated using ImageJ software (US National Institutes of Health), and the results were reported as the percentage of wound closure.
Whole mouse eyes were collected for histology at 0, 6, 16, 24, and 48 hours post wounding and were immediately placed in Prefer fixative (Anatech LTD., Battle Creek, Mich.) for 20 minutes before being transferred to 70% ethanol. Tissues were paraffin-embedded and cut at a thickness of 5 μm, mounted on SUPERFROSTPLUS® slides (Statlab Medical Products, Lewisville, Tex.), and subsequently deparaffinized, rehydrated, and washed in deionized water. Sections were stained with hematoxylin (Leica Microsystems, Buffalo Grove, Ill.) and rinsed twice in deionized water before being washed in Blue Buffer (Leica Microsystems). The sections were finally washed in deionized water and 95% ethanol prior to being counterstained with eosin (Leica Microsystems). Sections were dehydrated in ethanol and cleared in xylene.

HCEC monolayers = assay: In vitro scratch assay of wound closure; assay type: cell-based, human; details: 250 ng/ml
Protocol: An in vitro scratch assay was used in order to determine the ability of rCAP37 to facilitate corneal wound healing. Human corneal epithelial cells were cultured as described above until they reached a confluent monolayer. Each monolayer was scratched using a 10 μl pipette tip to create two perpendicular lines. Monolayers were treated with heparin binding-epidermal growth factor (HB-EGF, 250 ng/ml; Becton Dickinson), rCAP37 (25-2000 ng/ml), or basal KSFM (Gibco). Wound closure was monitored at 0, 18, 24, and 48 hours utilizing a camera-equipped inverted microscope (TE2000-E; Nikon, Melville, N.Y.). Time-lapse images of in vitro wound closure were obtained using a camera-equipped inverted microscope (TE2000-E; Nikon) from 0-18 hours. HCEC monolayers were treated with HB-EGF, rCAP37, and basal KSFM as described above. The width of each scratch was quantitated using ImageJ software (US National Institutes of Health, Bethesda, Md.). Results are presented as the percentage of wound closure.

Molecule: CC[C@H](C)[C@H](NC(=O)[C@H](CC(C)C)NC(=O)[C@H](C)NC(=O)CNC(=O)CNC(=O)[C@H](CS)NC(=O)[C@H](Cc1ccccc1)NC(=O)[C@H](Cc1c[nH]cn1)NC(=O)[C@H](CCCNC(=N)N)NC(=O)CNC(=O)[C@H](CCC(N)=O)NC(=O)[C@H](CC(N)=O)NC(=O)COCCOCCNC(=O)COCCOCCN)C(=O)N[C@@H](Cc1c[nH]cn1)C(=O)N[C@@H](C)C(=O)N[C@@H](CCCNC(=N)N)C(=O)N[C@@H](Cc1ccccc1)C(=O)N[C@H](C(=O)N[C@@H](CCSC)C(=O)N[C@H](C(=O)N[C@@H](C)C(=O)N[C@@H](C)C(=O)N[C@@H](CO)C(=O)N[C@@H](CO)C(=O)N[C@@H](Cc1ccccc1)C(=O)N[C@@H](CCC(N)=O)C(=O)O)[C@@H](C)O)C(C)C [BCC03-MP] (H-[AEEA][AEEA]NQGRHFCGGALIHARFVMTAASSFQ-OH; N-terminus and C-terminus assumed)
- Effects of Peptide Compounds on Pseudomonas aeruginosa ATCC ® 27853 ™ ([1]; Peptide Conc 12.5 μg/ml): −45.6
- Effects of Peptide Compounds on Pseudomonas aeruginosa ATCC ® 27853 ™ ([1]; Peptide Conc 50 μg/ml): −2.9
- Effects of Peptide Compounds on Pseudomonas aeruginosa ATCC ® 27853 ™ ([1]; Peptide Conc 100 μg/ml): 44.0
- Effects of Peptide Compounds on Escherichia coli ATCC ® 25922 ™ ([2]; Peptide Conc 6.25 μg/ml): 6.4
- Effects of Peptide Compounds on Escherichia coli ATCC ® 25922 ™ ([2]; Peptide Conc 200 μg/ml): 46.0

Molecule: GTRCQVAGWGSQHSGGRLSRFPRFVNV [Peptide 120-146QH]
- HCEC migration versus buffer control [3]: significantly increase migration
- HCEC migration compared with whole CAP37 protein ([3]; 120-146QH at 10^−6 M and 10^−8 M): comparable

Molecule: GTRCQVAGWGSQRSGGRLSRFPRFVNV [Peptide 120-146QR]
- HCEC migration versus buffer control [3]: significantly increase migration

Molecule: CC[C@H](C)[C@H](NC(=O)[C@H](CC(C)C)NC(=O)[C@H](C)NC(=O)CNC(=O)CNC(=O)[C@H](CS)NC(=O)[C@H](Cc1ccccc1)NC(=O)[C@H](Cc1c[nH]cn1)NC(=O)[C@H](CCCNC(=N)N)NC(=O)CNC(=O)[C@H](CCC(N)=O)NC(=O)[C@H](CC(N)=O)NC(=O)[C@H](CCCNC(=N)N)NC(=O)[C@H](CCCNC(=N)N)NC(=O)[C@H](CCCNC(=N)N)NC(=O)[C@H](CCCNC(=N)N)NC(=O)COCCOCCNC(=O)COCCOCCN)C(=O)N[C@@H](Cc1c[nH]cn1)C(=O)N[C@@H](C)C(=O)N[C@@H](CCCNC(=N)N)C(=O)N[C@@H](Cc1ccccc1)C(=O)N[C@H](C(=O)N[C@@H](CCSC)C(=O)N[C@H](C(=O)N[C@@H](C)C(=O)N[C@@H](C)C(=O)N[C@@H](CO)C(=O)N[C@@H](CO)C(=O)N[C@@H](Cc1ccccc1)C(=O)N[C@@H](CCC(N)=O)C(=O)N[C@@H](CCCNC(=N)N)C(=O)O)[C@@H](C)O)C(C)C [^14C-BCC03-5RMP] (H-[AEEA][AEEA]RRRRNQGRHFCGGALIHARFVMTAASSFQR-OH; N-terminus assumed)
- administered radioactivity eliminated within the first 48 hours postdose [4]: approximately 55%
- Clearance of radioactivity in plasma compared to blood ([4]; 20 mg/kg): approximately 2 fold
- exposure (AUC0-∞) in blood compared to plasma ([4]; 20 mg/kg): approximately 2 fold
- volume of distribution of total radioactivity in blood compared to plasma ([4]; 20 mg/kg): approximately 1.6 fold

B1: HB-EGF: heparin binding-epidermal growth factor, used as the positive control (protein, UniProt Q99075 63-148, looked up)
Heparin-binding EGF-like …: DLQEADLDLLRVTLSSKPQALATPNKEEHGKRKKKGKGLGKKRDPCLRKYKDFCIHGECKYVKELRAPSCICHPGYHGERCHGLSL
- HCEC migration versus buffer control [3]: significant increase in migration
- corneal wound healing versus vehicle [5]: significantly higher
- time to complete closure of scratched monolayers (HCEC monolayers): ≤ 24 h
- percentage wound closure in vitro (HCEC monolayers; at 18 hours): ~88%
